This passage reports inhibition results from patent US12162820B2 (TAIWANJ PHARMACEUTICALS CO., LTD., priority 2019, dated 2024).

Holding throughout (type): biochemical
One test concerns the target T1, HDAC1 (Homo sapiens, UniProt Q13547).
T1 construct: purchased Enzo Life Sciences
The experiment in a line: HDAC Inhibition Screening Assay (FLUOR DE LYS Fluorimetric Drug Discovery Kit), HDAC1. Particulars: for inhibition at 2 µM: 2 μM compound; for inhibition at 10 µM: 10 μM compound; for inhibition at 50 µM: 50 μM compound. The method, boiled down:
(§1)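 Compounds at 2 μM, 10 μM and 50 μM were each tested against HDAC1, HDAC2 and HDAC3 using a two-step fluorimetric assay. Results are given as percent of basal control after baseline subtraction.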

The next test concerns the target T2, HDAC2 (Homo sapiens, UniProt Q92769).
T2 construct: purchased Enzo Life Sciences
The experiment in a line: HDAC Inhibition Screening Assay (FLUOR DE LYS Fluorimetric Drug Discovery Kit), HDAC2. The conditions noted are these: for inhibition at 2 µM: 2 μM compound; for inhibition at 10 µM: 10 μM compound; for inhibition at 50 µM: 50 μM compound. The procedure, abridged: as §1

In a further test the target is T3, HDAC3 (Homo sapiens, UniProt O15379).
T3 construct: purchased Enzo Life Sciences
T3 sequence (O15379 whole entry): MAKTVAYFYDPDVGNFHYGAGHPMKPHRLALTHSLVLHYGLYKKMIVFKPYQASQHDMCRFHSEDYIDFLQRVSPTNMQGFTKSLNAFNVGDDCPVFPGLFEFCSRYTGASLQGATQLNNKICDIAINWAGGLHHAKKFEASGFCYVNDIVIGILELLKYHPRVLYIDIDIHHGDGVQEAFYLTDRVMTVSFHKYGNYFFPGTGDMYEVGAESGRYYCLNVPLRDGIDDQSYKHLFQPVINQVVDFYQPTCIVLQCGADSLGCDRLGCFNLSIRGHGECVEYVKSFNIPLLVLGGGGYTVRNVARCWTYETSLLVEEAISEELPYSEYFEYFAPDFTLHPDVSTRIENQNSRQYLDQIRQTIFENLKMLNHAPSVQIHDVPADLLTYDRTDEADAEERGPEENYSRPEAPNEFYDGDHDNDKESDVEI
T3 sequence (O75376 395-489 partner limits assumed): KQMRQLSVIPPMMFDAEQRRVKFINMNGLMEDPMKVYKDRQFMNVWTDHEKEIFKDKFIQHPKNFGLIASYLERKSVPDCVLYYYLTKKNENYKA
In words: HDAC Inhibition Screening Assay (FLUOR DE LYS Fluorimetric Drug Discovery Kit), HDAC3. Particulars: for inhibition at 2 µM: 2 μM compound; for inhibition at 10 µM: 10 μM compound; for inhibition at 50 µM: 50 μM compound. The procedure, abridged: as §1

The target in a further test is T4, ATX (autotaxin) (Homo sapiens, UniProt Q13822).
T4 construct: purchased Cayman 10803
The experiment in a line: Autotaxin Inhibition Screening Assay (choline release from LPC, LPC-CR). Particulars: for inhibition at 4 µM: 4 μM compound; for inhibition at 20 µM: 20 μM compound; for inhibition at 50 µM: 50 μM compound. The procedure, abridged: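 20 ng ATX incubated with 100 μM 14:0 LPC in 50 mM Tris pH 8.0, 0.01% Triton X-100, 50 mM CaCl2, with choline oxidase/HRP/2 mM HVA coupling; compounds at 4, 20 and 50 μM. HVA fluorescence (ex/em 320/450 nm) read every 60 s for 90 min; inhibition % from slopes corrected for blank versus vehicle.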

T1 sequence (Q13547 whole entry): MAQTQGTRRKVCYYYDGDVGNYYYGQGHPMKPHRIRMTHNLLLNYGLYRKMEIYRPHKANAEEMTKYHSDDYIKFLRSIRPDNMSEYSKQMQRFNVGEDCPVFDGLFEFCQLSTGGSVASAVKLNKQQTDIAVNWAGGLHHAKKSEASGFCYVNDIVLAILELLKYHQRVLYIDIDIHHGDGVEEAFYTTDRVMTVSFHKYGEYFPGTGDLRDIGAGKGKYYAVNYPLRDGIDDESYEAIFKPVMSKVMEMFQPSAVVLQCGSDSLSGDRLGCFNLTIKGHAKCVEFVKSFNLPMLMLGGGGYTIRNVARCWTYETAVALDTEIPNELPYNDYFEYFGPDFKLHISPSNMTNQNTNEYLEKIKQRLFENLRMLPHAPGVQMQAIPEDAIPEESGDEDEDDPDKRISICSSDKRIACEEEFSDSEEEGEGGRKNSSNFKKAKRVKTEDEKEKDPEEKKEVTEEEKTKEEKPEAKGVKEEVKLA
T2 sequence (Q92769 whole entry): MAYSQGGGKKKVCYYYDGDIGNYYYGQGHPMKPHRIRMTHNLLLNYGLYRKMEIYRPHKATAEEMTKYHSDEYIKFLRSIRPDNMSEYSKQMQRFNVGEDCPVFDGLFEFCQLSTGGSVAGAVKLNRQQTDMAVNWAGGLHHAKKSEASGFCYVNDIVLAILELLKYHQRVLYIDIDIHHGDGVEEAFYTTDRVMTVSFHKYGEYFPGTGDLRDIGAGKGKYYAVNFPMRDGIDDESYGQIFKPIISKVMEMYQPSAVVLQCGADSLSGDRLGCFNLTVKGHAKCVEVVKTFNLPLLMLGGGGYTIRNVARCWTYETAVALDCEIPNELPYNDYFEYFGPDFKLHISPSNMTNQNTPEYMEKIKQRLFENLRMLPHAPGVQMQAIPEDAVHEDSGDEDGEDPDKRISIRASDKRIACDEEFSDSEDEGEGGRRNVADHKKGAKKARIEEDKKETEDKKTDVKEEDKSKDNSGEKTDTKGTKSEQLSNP

For orientation: inhibition means the share of the control response that was lost under treatment. Take `O=C(CCCCCCC(=O)Nc1ccc2c(c1)CCC/C2=N\O)NO` [Compound 3, (E)-N1-hydroxy-N8-(5-(hydroxyimino)-5,6,7,8-tetrahydronaphthalen-2-yl)octanediamide]: on HDAC1, the inhibition at 2 µM was more than 80%, the inhibition at 10 µM is more than 80% and the inhibition at 50 µM is more than 80%. At HDAC2, the inhibition at 2 µM is more than 80%, the inhibition at 10 µM is more than 80% and the inhibition at 50 µM was more than 80%. Besides, on HDAC3, the inhibition at 2 µM is more than 80%, the inhibition at 10 µM was more than 80% and the inhibition at 50 µM was more than 80%. On ATX (autotaxin), this compound came in with an inhibition at 4 µM of less than 50%, an inhibition at 20 µM of less than 50% and an inhibition at 50 µM of less than 50%.

As for `Nc1cc(F)ccc1NC(=O)c1ccc(COc2ccc3c(c2)CCC(Cc2cc(C(F)(F)F)cc(C(F)(F)F)c2)C3=O)cc1` (stereo not drawn) [Compound 67, N-(2-amino-4-fluorophenyl)-4-(((6-(3,5-bis(trifluoromethyl)benzyl)-5-oxo-5,6,7,8-tetrahydronaphthalen-2-yl)oxy)methyl)benzamide], at HDAC1, the inhibition at 2 µM is less than 50%, the inhibition at 10 µM was less than 50% and the inhibition at 50 µM was less than 50%. At HDAC2, the inhibition at 2 µM is less than 50%, the inhibition at 10 µM was less than 50% and the inhibition at 50 µM is less than 50%. On HDAC3, the inhibition at 2 µM was less than 50%, the inhibition at 10 µM is less than 50% and the inhibition at 50 µM is less than 50%. For the same compound, at ATX (autotaxin), the inhibition at 4 µM was less than 50%, the inhibition at 20 µM is less than 50% and the inhibition at 50 µM was less than 50%.

Take `Nc1cc(F)ccc1NC(=O)/C=C/c1ccc2c(c1)CC/C(=C\c1cc(C(F)(F)F)cc(C(F)(F)F)c1)C2=O` [Compound 6, (E)-N-(2-amino-4-fluorophenyl)-3-(6-((E)-3,5-bis(trifluoromethyl)benzylidene)-5-oxo-5,6,7,8-tetrahydronaphthalen-2-yl)acrylamide]: at HDAC1, the inhibition at 2 µM was less than 50%, the inhibition at 10 µM is less than 50% and the inhibition at 50 µM is less than 50%. In addition, on HDAC2, the inhibition at 2 µM was less than 50%, the inhibition at 10 µM is less than 50% and the inhibition at 50 µM was less than 50%. For the same compound, on HDAC3, the inhibition at 2 µM was less than 50%, the inhibition at 10 µM is less than 50% and the inhibition at 50 µM was less than 50%. At ATX (autotaxin), this compound displayed an inhibition at 4 µM of 50 to 80%, an inhibition at 20 µM of 50 to 80% and an inhibition at 50 µM of 50 to 80%.

For the compound `Nc1cc(F)ccc1NC(=O)CCCCCCC(=O)Nc1ccc2c(c1)CCC(Cc1cc(C(F)(F)F)cc(C(F)(F)F)c1)C2=O` (stereo not drawn) [Compound 9, N1-(2-amino-4-fluorophenyl)-N8-(6-(3,5-bis(trifluoromethyl)benzyl)-5-oxo-5,6,7,8-tetrahydronaphthalen-2-yl)octanediamide], at HDAC1, the inhibition at 2 µM was less than 50%, the inhibition at 10 µM is less than 50% and the inhibition at 50 µM is less than 50%. For the same compound, at HDAC2, the inhibition at 2 µM is less than 50%, the inhibition at 10 µM is less than 50% and the inhibition at 50 µM was less than 50%. At HDAC3, the inhibition at 2 µM is less than 50%, the inhibition at 10 µM was less than 50% and the inhibition at 50 µM was less than 50%. Also, at ATX (autotaxin), the inhibition at 4 µM was less than 50%, the inhibition at 20 µM was less than 50% and the inhibition at 50 µM was less than 50%.

`Nc1cc(F)ccc1NC(=O)/C=C/c1ccc2c(c1)CCC2NCCC(=O)Nc1cc(C(F)(F)F)cc(C(F)(F)F)c1` (stereo not drawn) [Compound 49, (E)-N-(2-amino-4-fluorophenyl)-3-(1-((3-((3,5-bis(trifluoromethyl)phenyl)amino)-3-oxopropyl)amino)-2,3-dihydro-1H-inden-5-yl)acrylamide]: at HDAC1, the inhibition at 2 µM was less than 50%, the inhibition at 10 µM was less than 50% and the inhibition at 50 µM was less than 50%. Besides, on HDAC2, the inhibition at 2 µM is less than 50%, the inhibition at 10 µM was less than 50% and the inhibition at 50 µM was 50 to 80%. Besides, at HDAC3, the inhibition at 2 µM is less than 50%, the inhibition at 10 µM was less than 50% and the inhibition at 50 µM fell in the range of 50 to 80%. On ATX (autotaxin), this compound registered an inhibition at 4 µM of less than 50%, an inhibition at 20 µM of less than 50% and an inhibition at 50 µM of less than 50%.

Regarding `Nc1cc(F)ccc1NC(=O)CCCCCCC(=O)NC1CCc2cc(/C=C/C(=O)Nc3cc(Cl)cc(Cl)c3)ccc21` (stereo not drawn) [Compound 41], on HDAC1, the inhibition at 2 µM was less than 50%, the inhibition at 10 µM is less than 50% and the inhibition at 50 µM is less than 50%. On HDAC2, the inhibition at 2 µM was less than 50%, the inhibition at 10 µM was less than 50% and the inhibition at 50 µM is less than 50%. On HDAC3, the inhibition at 2 µM is less than 50%, the inhibition at 10 µM was less than 50% and the inhibition at 50 µM was less than 50%. For the same compound, at ATX (autotaxin), the inhibition at 4 µM was less than 50%, the inhibition at 20 µM is less than 50% and the inhibition at 50 µM was less than 50%.

In the case of `Nc1cc(F)ccc1NC(=O)/C=C/c1ccc(COc2ccc3c(c2)CC/C(=C\c2cc(C(F)(F)F)cc(C(F)(F)F)c2)C3=O)cc1` [Compound 71], at HDAC1, the inhibition at 2 µM is less than 50%, the inhibition at 10 µM is less than 50% and the inhibition at 50 µM is less than 50%. Besides, at HDAC2, the inhibition at 2 µM is less than 50%, the inhibition at 10 µM was less than 50% and the inhibition at 50 µM is less than 50%. Besides, at HDAC3, the inhibition at 2 µM was less than 50%, the inhibition at 10 µM is less than 50% and the inhibition at 50 µM was less than 50%. At ATX (autotaxin), this compound registered an inhibition at 4 µM of less than 50%, an inhibition at 20 µM of less than 50% and an inhibition at 50 µM of less than 50%.

For the compound `CN(C(=O)OCc1cc(C(F)(F)F)cc(C(F)(F)F)c1)C1CCc2ccc(/C=C/C(=O)NO)cc21` (stereo not drawn) [Compound 65, 3,5-bis(trifluoromethyl)benzyl (E)-(6-(3-(hydroxyamino)-3-oxoprop-1-en-1-yl)-2,3-dihydro-1H-inden-1-yl)(methyl)carbamate], on HDAC1, the inhibition at 2 µM was less than 50%, the inhibition at 10 µM fell in the range of 50 to 80% and the inhibition at 50 µM is more than 80%. For the same compound, at HDAC2, the inhibition at 2 µM fell in the range of 50 to 80%, the inhibition at 10 µM is more than 80% and the inhibition at 50 µM was more than 80%. Besides, on HDAC3, the inhibition at 2 µM is less than 50%, the inhibition at 10 µM fell in the range of 50 to 80% and the inhibition at 50 µM was more than 80%. On ATX (autotaxin), this compound gave an inhibition at 4 µM of more than 80%, an inhibition at 20 µM of more than 80% and an inhibition at 50 µM of more than 80%.

With `O=C(/C=C/c1ccc2c(c1)CCC2NCCC(=O)Nc1cc(C(F)(F)F)cc(C(F)(F)F)c1)NO` (stereo not drawn) [Compound 50, (E)-3-(1-((3-((3,5-bis(trifluoromethyl)phenyl)amino)-3-oxopropyl)amino)-2,3-dihydro-1H-inden-5-yl)-N-hydroxyacrylamide], at HDAC1, the inhibition at 2 µM was more than 80%, the inhibition at 10 µM is more than 80% and the inhibition at 50 µM was more than 80%. Moreover, at HDAC2, the inhibition at 2 µM is more than 80%, the inhibition at 10 µM was more than 80% and the inhibition at 50 µM was more than 80%. At HDAC3, the inhibition at 2 µM is more than 80%, the inhibition at 10 µM is more than 80% and the inhibition at 50 µM was more than 80%. Besides, at ATX (autotaxin), the inhibition at 4 µM is less than 50%, the inhibition at 20 µM was less than 50% and the inhibition at 50 µM was less than 50%.

As for `Nc1cc(F)ccc1NC(=O)CCCCCNC(=O)/C=C/c1ccc2c(c1)CCC2NC(=O)c1ccc(F)cc1` (stereo not drawn) [Compound 31, (E)-N-(5-(3-((6-((2-amino-4-fluorophenyl)amino)-6-oxohexyl)amino)-3-oxoprop-1-en-1-yl)-2,3-dihydro-1H-inden-1-yl)-4-fluorobenzamide], at HDAC1, the inhibition at 2 µM is less than 50%, the inhibition at 10 µM was in the range of 50 to 80% and the inhibition at 50 µM lay within 50 to 80%. At HDAC2, the inhibition at 2 µM is more than 80%, the inhibition at 10 µM is more than 80% and the inhibition at 50 µM is more than 80%. For the same compound, on HDAC3, the inhibition at 2 µM was 50 to 80%, the inhibition at 10 µM was more than 80% and the inhibition at 50 µM is more than 80%. On ATX (autotaxin), this compound came in with an inhibition at 4 µM of less than 50%, an inhibition at 20 µM of less than 50% and an inhibition at 50 µM of less than 50%.

With `O=C(/C=C/c1ccc2c(c1)CCC2NC(=O)OCc1cc(C(F)(F)F)cc(C(F)(F)F)c1)NO` (stereo not drawn) [Compound 15, 3,5-bis(trifluoromethyl)benzyl (E)-(5-(3-(hydroxyamino)-3-oxoprop-1-en-1-yl)-2,3-dihydro-1H-inden-1-yl)carbamate], on HDAC1, the inhibition at 2 µM is less than 50%, the inhibition at 10 µM fell in the range of 50 to 80% and the inhibition at 50 µM is more than 80%. In addition, at HDAC2, the inhibition at 2 µM is less than 50%, the inhibition at 10 µM fell in the range of 50 to 80% and the inhibition at 50 µM is more than 80%. Further, on HDAC3, the inhibition at 2 µM is less than 50%, the inhibition at 10 µM is 50 to 80% and the inhibition at 50 µM is more than 80%. Further, at ATX (autotaxin), the inhibition at 4 µM was less than 50%, the inhibition at 20 µM is less than 50% and the inhibition at 50 µM is less than 50%.
